This passage reports IC50 results from patent US6685617B1, “Inhibitors of α4β1 mediated cell adhesion” (Pharmacia & Upjohn Company, priority 1998, dated 2004).

Assay [1] has as its target T1, α4β1 integrin (Jurkat cell adhesion to immobilized CS-1 derived peptide CLHPGEILDVPST) (Homo sapiens, UniProt P05556+P13612).
T1 construct: 100 μl of Jurkat cells (2.5×10^6 cells/ml) in DMEM plus BSA; host or cells: Jurkat T-cell line
Kind of assay: Jurkat-CS-1 assay. Conditions: Jurkat cells on CS-1 peptide coated plates; read-out: JK/CS-1 (Jurkat CS-1 Assay IC50 value range). In kind it is cell-based. In short, it runs like this:
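CS-1 peptide was SPDP-crosslinked onto HSA-coated plates and blocked with BSA. Jurkat cells (2.5×10^6 cells/ml) in DMEM/BSA were mixed with compound, generally at 100, 20, 5 and 1.25 μM, and allowed to adhere for 1 hr at 37° C. Bound cells were fixed, stained with toluidine blue and quantified by OD590.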

The target in assay [2] is T2, α4β1 integrin (Jurkat T-cell adhesion to IL-1 stimulated endothelial cell monolayers) (Homo sapiens, UniProt P05556+P13612).
T2 construct: a T-cell line, Jurkat, known to express the α4β1 integrin; host or cells: Jurkat T-cell line
Kind of assay: Jurkat-endothelial cell adhesion assay (Jurkat EC). The format is cell-based. The settings on record: Jurkat cells on IL-1 stimulated human umbilical vein endothelial cells; read-out: JK/EC (Jurkat EC Assay IC50 value range). The gist of the method: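 BCECF-AM-labelled Jurkat cells were mixed with compound, generally 100, 20, 5 and 1.25 μM, and added to HUVEC monolayers (passage ≤6) pre-stimulated 4 hr at 37° C with 0.1 ng/ml IL-1. After 5 min on ice and 20 min at 37° C, washed wells were read by fluorescence as % adhesion relative to no compound.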

T2 sequence (P13612 34-1032): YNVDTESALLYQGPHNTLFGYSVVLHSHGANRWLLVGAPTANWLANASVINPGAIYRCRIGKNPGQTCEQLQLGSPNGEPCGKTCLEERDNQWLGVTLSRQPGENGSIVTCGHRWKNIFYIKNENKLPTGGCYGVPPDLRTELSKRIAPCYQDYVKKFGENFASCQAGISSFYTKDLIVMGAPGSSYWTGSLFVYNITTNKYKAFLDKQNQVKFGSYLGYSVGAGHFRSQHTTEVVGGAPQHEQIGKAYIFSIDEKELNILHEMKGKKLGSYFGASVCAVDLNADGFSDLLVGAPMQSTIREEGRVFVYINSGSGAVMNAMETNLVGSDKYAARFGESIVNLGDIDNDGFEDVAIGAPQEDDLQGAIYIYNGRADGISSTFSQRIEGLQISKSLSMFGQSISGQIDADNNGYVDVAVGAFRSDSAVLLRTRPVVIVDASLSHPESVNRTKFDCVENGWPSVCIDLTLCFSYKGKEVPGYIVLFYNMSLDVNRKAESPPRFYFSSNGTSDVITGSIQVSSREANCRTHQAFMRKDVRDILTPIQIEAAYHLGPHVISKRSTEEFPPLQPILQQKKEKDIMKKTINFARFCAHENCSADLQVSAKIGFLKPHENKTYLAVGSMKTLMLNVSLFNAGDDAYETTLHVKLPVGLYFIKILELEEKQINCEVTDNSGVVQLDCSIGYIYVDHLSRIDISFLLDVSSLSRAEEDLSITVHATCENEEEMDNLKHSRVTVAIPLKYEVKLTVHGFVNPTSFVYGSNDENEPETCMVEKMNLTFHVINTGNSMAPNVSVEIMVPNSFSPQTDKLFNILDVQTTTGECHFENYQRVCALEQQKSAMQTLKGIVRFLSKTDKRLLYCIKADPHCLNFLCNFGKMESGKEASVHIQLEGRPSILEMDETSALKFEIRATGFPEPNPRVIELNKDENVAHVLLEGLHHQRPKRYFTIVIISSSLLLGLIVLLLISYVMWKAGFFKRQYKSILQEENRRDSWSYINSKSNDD
T2 sequence (P05556 21-798): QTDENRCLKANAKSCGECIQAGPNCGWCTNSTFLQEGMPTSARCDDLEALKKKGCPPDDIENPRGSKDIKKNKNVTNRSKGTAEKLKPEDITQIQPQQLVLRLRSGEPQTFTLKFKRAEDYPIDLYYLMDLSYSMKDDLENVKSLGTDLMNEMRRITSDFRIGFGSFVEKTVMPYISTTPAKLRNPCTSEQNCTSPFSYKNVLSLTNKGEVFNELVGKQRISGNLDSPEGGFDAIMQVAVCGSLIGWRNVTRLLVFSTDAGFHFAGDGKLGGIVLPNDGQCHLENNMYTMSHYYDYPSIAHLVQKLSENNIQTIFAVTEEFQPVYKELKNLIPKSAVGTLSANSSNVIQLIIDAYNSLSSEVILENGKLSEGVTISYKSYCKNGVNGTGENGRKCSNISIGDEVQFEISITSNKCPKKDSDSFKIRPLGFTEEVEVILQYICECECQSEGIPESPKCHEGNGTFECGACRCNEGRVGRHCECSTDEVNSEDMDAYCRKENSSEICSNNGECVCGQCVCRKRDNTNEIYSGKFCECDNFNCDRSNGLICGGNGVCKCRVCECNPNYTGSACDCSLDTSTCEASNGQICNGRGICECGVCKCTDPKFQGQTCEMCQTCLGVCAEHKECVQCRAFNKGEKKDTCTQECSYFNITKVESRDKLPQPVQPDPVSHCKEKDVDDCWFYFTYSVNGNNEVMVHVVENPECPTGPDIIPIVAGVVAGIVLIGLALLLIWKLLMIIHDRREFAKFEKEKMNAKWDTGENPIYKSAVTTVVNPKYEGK
T1 sequence (P13612 34-1032): as the sequence (P13612 34-1032) above
T1 sequence (P05556 21-798): as the sequence (P05556 21-798) above

Take `CN1C(=O)CC(C(=O)N[C@@H](Cc2ccc(NC(=O)c3c(Cl)cccc3Cl)cc2)C(=O)O)C1c1ccc2c(c1)OCO2` (stereo partly drawn) [Example 171, N-[[2-(1,3-Benzodioxol-5-yl)-1-methyl-5-oxo-3-pyrrolidinyl]carbonyl]-4-[(2,6-dichlorobenzoyl)amino]-L-phenylalanine]: the figures for the IC50 in assay [1] and in assay [2] were 50 to 750 nM and at least 1000 nM, respectively.

With `O=C(O)c1cncc(C(=O)N2CCCC[C@H]2C(=O)N[C@@H](Cc2ccc(NC(=O)c3c(Cl)cccc3Cl)cc2)C(=O)O)c1` [Example 172, 5-[[(2S)-2-[[[(1S)-1-Carboxy-2-[4-[(2,6-dichlorobenzoyl)amino]phenyl]ethyl]amino]carbonyl]-1-piperidinyl]carbonyl]-3-pyridinecarboxylic Acid], the IC50 in assay [1] is at most 50 nM; in assay [2] it was at most 250 nM.

For `COCCC(=O)N1CCCC(C(=O)N[C@@H](Cc2ccc(NC(=O)c3c(Cl)cccc3Cl)cc2)C(=O)O)C1` (stereo partly drawn) [Example 173, 4-[(2,6-Dichlorobenzoyl)amino]-N-[[1-(3-methoxy-1-oxopropyl)-3-piperidinyl]carbonyl]-L-phenylalanine], the IC50 in assay [1] was 50 to 750 nM; in assay [2] it was at most 250 nM.

On to `O=C(O)/C=C/C(=O)N1CCCC[C@H]1C(=O)N[C@@H](Cc1ccc(NC(=O)c2c(Cl)cccc2Cl)cc1)C(=O)O` [Example 176], for which the IC50 is 50 to 750 nM in assay [1] and at least 1000 nM in assay [2].

`COCCC(=O)N1CCCC[C@H]1C(=O)N[C@@H](Cc1ccc(NC(=O)c2c(Cl)cccc2Cl)cc1)C(=O)O` [Example 177]: the IC50 is at most 50 nM in assay [1] and at least 1000 nM in assay [2].

Take `O=C(Nc1ccc(C[C@H](NC(=O)[C@@H]2CCCCN2C(=O)C2CCCC(C(=O)O)C2)C(=O)O)cc1)c1c(Cl)cccc1Cl` (some centres unmarked) [Example 178]: the IC50 in assay [1] was at most 50 nM; in assay [2], at least 1000 nM.

On to `O=C(O)c1ccccc1C(=O)N1CCCC[C@H]1C(=O)N[C@@H](Cc1ccc(NC(=O)c2c(Cl)cccc2Cl)cc1)C(=O)O` [Example 181], for which the IC50 in assay [1] was 50 to 750 nM; in assay [2], at least 1000 nM.

Consider `O=C(O)c1cccc(C(=O)N2CCCC[C@H]2C(=O)N[C@@H](Cc2ccc(NC(=O)c3c(Cl)cccc3Cl)cc2)C(=O)O)c1` [Example 182], for which the IC50 in assay [1] was in the range of 50 to 750 nM; in assay [2], 250 to 1000 nM.

As to `O=C(Nc1ccc(C[C@H](NC(=O)[C@@H]2CCCCN2C(=O)c2cccnc2)C(=O)O)cc1)c1c(Cl)cccc1Cl` [Example 185], the IC50 in assay [1] was at most 50 nM; in assay [2] it was at most 250 nM.

Take `O=C(O)c1cccc(C(=O)N2CCCC[C@H]2C(=O)N[C@@H](Cc2ccc(NC(=O)c3c(Cl)cccc3Cl)cc2)C(=O)O)n1` [Example 186]: the IC50 in assay [1] was at most 50 nM; in assay [2], at most 250 nM.

For the compound `O=C(O)c1ccc(C(=O)N2CCCC[C@H]2C(=O)N[C@@H](Cc2ccc(NC(=O)c3c(Cl)cccc3Cl)cc2)C(=O)O)nc1` [Example 187], the results for the IC50 in assay [1] and in assay [2] were 50 to 750 nM and at least 1000 nM, respectively.

In the case of `O=C(Nc1ccc(C[C@H](NC(=O)[C@@H]2CCCCN2C(=O)c2cc(O)c3ccccc3n2)C(=O)O)cc1)c1c(Cl)cccc1Cl` [Example 188], the IC50 in assay [1] was 50 to 750 nM; in assay [2], at least 1000 nM.

`O=C(O)c1cc(C(=O)N2CCCC[C@H]2C(=O)N[C@@H](Cc2ccc(NC(=O)c3c(Cl)cccc3Cl)cc2)C(=O)O)n[nH]1` [Example 189]: the figures for the IC50 in assay [1] and in assay [2] were 50 to 750 nM and at least 1000 nM, respectively.

For the compound `O=C(Nc1ccc(C[C@H](NC(=O)[C@@H]2CCCCN2C(=O)C2NC(C(=O)O)CS2)C(=O)O)cc1)c1c(Cl)cccc1Cl` (some centres unmarked) [Example 190], the IC50 in assay [1] lay in the range of 50 to 750 nM; in assay [2] it was 250 to 1000 nM.

Consider `O=C(Nc1ccc(C[C@H](NC(=O)[C@@H]2CCCCN2C(=O)c2ccc([N+](=O)[O-])o2)C(=O)O)cc1)c1c(Cl)cccc1Cl` [Example 191], for which the values for the IC50 in assay [1] and in assay [2] were 50 to 750 nM and at least 1000 nM, respectively.

Take `O=C(Nc1ccc(C[C@H](NC(=O)[C@@H]2CCCCN2C(=O)C2CCCO2)C(=O)O)cc1)c1c(Cl)cccc1Cl` (some centres unmarked) [Example 192]: the IC50 in assay [1] was at most 50 nM; in assay [2], at most 250 nM.

Turning to `O=C(Nc1ccc(C[C@H](NC(=O)[C@@H]2CCCCN2C(=O)C2CCOC2)C(=O)O)cc1)c1c(Cl)cccc1Cl` (some centres unmarked) [Example 193], the figures for the IC50 in assay [1] and in assay [2] were 50 to 750 nM and at most 250 nM, respectively.

As to `O=C(O)CC1(CC(=O)N2CCCC(C(=O)N[C@@H](Cc3ccc(NC(=O)c4c(Cl)cccc4Cl)cc3)C(=O)O)C2)CCCC1` (some centres unmarked) [Example 195], the IC50 is 50 to 750 nM in assay [1] and at least 1000 nM in assay [2].

With `CC(C)(CC(=O)O)CC(=O)N1CCCC(C(=O)N[C@@H](Cc2ccc(NC(=O)c3c(Cl)cccc3Cl)cc2)C(=O)O)C1` (some centres unmarked) [Example 196], the IC50 in assay [1] was 50 to 750 nM; in assay [2] it was at least 1000 nM.

Turning to `O=C(O)/C=C\C(=O)N1CCCC(C(=O)N[C@@H](Cc2ccc(NC(=O)c3c(Cl)cccc3Cl)cc2)C(=O)O)C1` (some centres unmarked) [Example 197], the IC50 in assay [1] is at least 750 nM; in assay [2] it was at least 1000 nM.

With `O=C(Nc1ccc(C[C@H](NC(=O)C2CCCN(C(=O)C3CCCC(C(=O)O)C3)C2)C(=O)O)cc1)c1c(Cl)cccc1Cl` (some centres unmarked) [Example 200], the IC50 in assay [1] was 50 to 750 nM; in assay [2], at least 1000 nM.

With `CC(=O)CCC(=O)N1CCCC(C(=O)N[C@@H](Cc2ccc(NC(=O)c3c(Cl)cccc3Cl)cc2)C(=O)O)C1` (some centres unmarked) [Example 201], the IC50 in assay [1] was 50 to 750 nM; in assay [2] it was at least 1000 nM.

Take `COc1ccc(C(=O)N2CCCC(C(=O)N[C@@H](Cc3ccc(NC(=O)c4c(Cl)cccc4Cl)cc3)C(=O)O)C2)cc1OC` (some centres unmarked) [Example 203]: the IC50 is 50 to 750 nM in assay [1] and at least 1000 nM in assay [2].

`O=C(O)c1ccccc1C(=O)N1CCCC(C(=O)N[C@@H](Cc2ccc(NC(=O)c3c(Cl)cccc3Cl)cc2)C(=O)O)C1` (some centres unmarked) [Example 204]: the IC50 fell in the range of 50 to 750 nM in assay [1] and 250 to 1000 nM in assay [2].

For `O=C(O)c1ccc2cc(C(=O)N3CCCC(C(=O)N[C@@H](Cc4ccc(NC(=O)c5c(Cl)cccc5Cl)cc4)C(=O)O)C3)ccc2c1` (some centres unmarked) [Example 206], the results for the IC50 in assay [1] and in assay [2] were 50 to 750 nM and 250 to 1000 nM, respectively.

For the compound `O=C(O)c1cncc(C(=O)N2CCCC(C(=O)N[C@@H](Cc3ccc(NC(=O)c4c(Cl)cccc4Cl)cc3)C(=O)O)C2)c1` (some centres unmarked) [Example 207], the IC50 is 50 to 750 nM in assay [1] and at least 1000 nM in assay [2].

As for `CC(=O)CCC(=O)N1CCC(C(=O)N[C@@H](Cc2ccc(NC(=O)c3c(Cl)cccc3Cl)cc2)C(=O)O)CC1` [Example 216], the IC50 in assay [1] was 50 to 750 nM; in assay [2], at least 1000 nM.

Consider `O=C(O)c1cccc(C(=O)N2CCC(C(=O)N[C@@H](Cc3ccc(NC(=O)c4c(Cl)cccc4Cl)cc3)C(=O)O)CC2)c1` [Example 220], for which the IC50 is 50 to 750 nM in assay [1] and at least 1000 nM in assay [2].

Turning to `O=C(O)c1cncc(C(=O)N2CCC(C(=O)N[C@@H](Cc3ccc(NC(=O)c4c(Cl)cccc4Cl)cc3)C(=O)O)CC2)c1` [Example 222], the IC50 in assay [1] is 50 to 750 nM; in assay [2], at least 1000 nM.

Take `O=C(O)CCC(=O)N1CCC[C@H]1C(=O)N[C@@H](Cc1ccc(NC(=O)c2c(Cl)cccc2Cl)cc1)C(=O)O` [Example 224]: the IC50 was 50 to 750 nM in assay [1] and at least 1000 nM in assay [2].

Turning to `O=C(O)CC1(CC(=O)N2CCC[C@H]2C(=O)N[C@@H](Cc2ccc(NC(=O)c3c(Cl)cccc3Cl)cc2)C(=O)O)CCCC1` [Example 225], the values for the IC50 in assay [1] and in assay [2] were 50 to 750 nM and at least 1000 nM, respectively.

In the case of `CC(C)(CC(=O)O)CC(=O)N1CCC[C@H]1C(=O)N[C@@H](Cc1ccc(NC(=O)c2c(Cl)cccc2Cl)cc1)C(=O)O` [Example 226], the IC50 in assay [1] was 50 to 750 nM; in assay [2], at least 1000 nM.

Consider `O=C(O)/C=C\C(=O)N1CCC[C@H]1C(=O)N[C@@H](Cc1ccc(NC(=O)c2c(Cl)cccc2Cl)cc1)C(=O)O` [Example 227], for which the IC50 in assay [1] is 50 to 750 nM; in assay [2], at least 1000 nM.

`O=C(O)/C=C/C(=O)N1CCC[C@H]1C(=O)N[C@@H](Cc1ccc(NC(=O)c2c(Cl)cccc2Cl)cc1)C(=O)O` [Example 228]: the values for the IC50 in assay [1] and in assay [2] were 50 to 750 nM and at least 1000 nM, respectively.

As to `COCCC(=O)N1CCC[C@H]1C(=O)N[C@@H](Cc1ccc(NC(=O)c2c(Cl)cccc2Cl)cc1)C(=O)O` [Example 229], the IC50 in assay [1] was 50 to 750 nM; in assay [2], at least 1000 nM.

In the case of `O=C(Nc1ccc(C[C@H](NC(=O)[C@@H]2CCCN2C(=O)C2CCCC(C(=O)O)C2)C(=O)O)cc1)c1c(Cl)cccc1Cl` (some centres unmarked) [Example 230], the results for the IC50 in assay [1] and in assay [2] were 50 to 750 nM and at least 1000 nM, respectively.

For the compound `CC(=O)CCC(=O)N1CCC[C@H]1C(=O)N[C@@H](Cc1ccc(NC(=O)c2c(Cl)cccc2Cl)cc1)C(=O)O` [Example 231], the IC50 in assay [1] is 50 to 750 nM; in assay [2], at least 1000 nM.

With `O=C(O)CNC(=O)N1CCC[C@H]1C(=O)N[C@@H](Cc1ccc(NC(=O)c2c(Cl)cccc2Cl)cc1)C(=O)O` [Example 232], the IC50 was at least 750 nM in assay [1] and at least 1000 nM in assay [2].

For `COc1ccc(C(=O)N2CCC[C@H]2C(=O)N[C@@H](Cc2ccc(NC(=O)c3c(Cl)cccc3Cl)cc2)C(=O)O)cc1OC` [Example 233], the IC50 in assay [1] was 50 to 750 nM; in assay [2] it was at least 1000 nM.

Turning to `O=C(O)c1ccccc1C(=O)N1CCC[C@H]1C(=O)N[C@@H](Cc1ccc(NC(=O)c2c(Cl)cccc2Cl)cc1)C(=O)O` [Example 234], the IC50 was 50 to 750 nM in assay [1] and at least 1000 nM in assay [2].
